Results reported in paper PMC9120017, “Inhibition mechanism of the chloride channel TMEM16A by the pore blocker 1PBC” (Nature Communications, 2022).
Values after ≈ are worked out from the molar mass of the structure shown. Read-outs that look alike come from different tables or passages of the source.

Tests used:
[1] = Solubility of 1PBC in aqueous solution; assay type: physicochemical
[2] = molecular target: T1, mouse TMEM16A mutant Q649A (Mus musculus, UniProt Q8BHY3, Q649A); experiment: Inside-out patch recording of 1PBC block, constitutively active mutant Q649A; assay type: cell-based; details: for remaining activity at 3 µM: 3 µM 1PBC; for remaining activity at 10 µM: 10 µM 1PBC; for remaining activity at 30 µM: 30 µM 1PBC
T1 construct: expressed in transfected cells; host or cells: HEK293T
T1 sequence (Q8BHY3 1-960 Q649A): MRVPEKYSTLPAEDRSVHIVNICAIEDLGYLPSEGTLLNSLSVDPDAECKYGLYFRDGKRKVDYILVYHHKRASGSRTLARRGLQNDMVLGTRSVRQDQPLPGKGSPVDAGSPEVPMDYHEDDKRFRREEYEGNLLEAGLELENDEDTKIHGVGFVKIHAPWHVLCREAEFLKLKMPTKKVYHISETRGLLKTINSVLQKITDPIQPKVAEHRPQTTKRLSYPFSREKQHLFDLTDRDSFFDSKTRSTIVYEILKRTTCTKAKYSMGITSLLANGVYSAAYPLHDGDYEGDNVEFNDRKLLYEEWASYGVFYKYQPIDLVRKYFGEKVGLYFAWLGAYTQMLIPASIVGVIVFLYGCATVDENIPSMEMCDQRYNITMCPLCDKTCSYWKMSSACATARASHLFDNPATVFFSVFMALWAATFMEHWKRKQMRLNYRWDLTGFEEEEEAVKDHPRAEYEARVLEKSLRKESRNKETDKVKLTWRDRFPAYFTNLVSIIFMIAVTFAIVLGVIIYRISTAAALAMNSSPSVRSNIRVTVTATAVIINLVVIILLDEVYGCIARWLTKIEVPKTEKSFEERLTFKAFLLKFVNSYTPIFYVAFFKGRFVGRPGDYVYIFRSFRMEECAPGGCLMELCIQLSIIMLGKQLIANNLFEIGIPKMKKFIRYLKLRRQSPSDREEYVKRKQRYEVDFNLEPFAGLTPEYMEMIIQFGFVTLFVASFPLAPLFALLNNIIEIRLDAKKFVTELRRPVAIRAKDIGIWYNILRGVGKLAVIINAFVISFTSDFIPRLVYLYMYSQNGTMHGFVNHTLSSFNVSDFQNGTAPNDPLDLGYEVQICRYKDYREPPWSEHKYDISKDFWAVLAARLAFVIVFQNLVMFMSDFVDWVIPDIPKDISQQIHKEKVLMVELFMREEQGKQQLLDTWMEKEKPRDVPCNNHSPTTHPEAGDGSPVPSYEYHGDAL
Procedure: HEK293T cells (ATCC CRL-1573) were maintained in Dulbecco’s modified Eagle’s medium (DMEM; Sigma-Aldrich) supplemented with 10 U ml^−1 penicillin, 0.1 mg ml^−1 streptomycin (Sigma-Aldrich), 2 mM L-glutamine (Sigma-Aldrich), and 10% FBS (Sigma-Aldrich) in a humidified atmosphere containing 5% CO2 at 37 °C. HEK293S GnTI^− cells (ATCC CRL-3022) were maintained in HyClone HyCell TransFx-H medium (GE Healthcare) supplemented with 10 U ml^−1 penicillin, 0.1 mg ml^−1 streptomycin, 4 mM L-glutamine, 0.15% poloxamer 188 (Sigma-Aldrich), and 1% FBS in an atmosphere containing 5% CO2 at 185 rpm at 37 °C. The ac splice variant of mouse TMEM16A (UniProt ID: Q8BHY3), mouse TMEM16B (UniProt ID: Q8CFW1), or mouse TMEM16F (UniProt ID: Q6P9J9) bearing a 3C cleavage site, a Venus YFP, a Myc tag, and a Streptavidin-binding peptide (SBP) downstream of the open reading frame in a modified pcDNA3.1 vector (Invitrogen) were used as described previously[21],[31]. Mutations were introduced using a modified QuikChange method[58] and were verified by sequencing.
HEK293T cells were transfected with 3–4 μg DNA per 6 cm Petri dish using the calcium phosphate co-precipitation method and were used within 24–96 h after transfection. Recordings were performed on inside-out patches excised from HEK293T cells expressing the construct of interest. Patch pipettes were pulled from borosilicate glass capillaries (O.D. 1.5 mm, I.D. 0.86 mm, Sutter Instrument) and were fire-polished with a microforge (Narishige) before use. Pipette resistance was typically 3–8 MΩ when filled with the recording solutions detailed below. Seal resistance was typically 4 GΩ or higher. Voltage-clamp recordings were made using Axopatch 200B, Digidata 1550, and Clampex 10.7 (Molecular Devices). Analog signals were filtered with the in-built 4-pole Bessel filter at 10 kHz and were digitized at 20 kHz. Solution exchange was achieved using a gravity-fed system through a theta glass pipette mounted on an ultra-fast piezo-driven stepper (Siskiyou). […] All recordings were performed at 20 °C.
A symmetrical ionic condition was used throughout. Stock solution with Ca^2+-EGTA contained 150 mM NaCl, 5.99 mM Ca(OH)2, 5 mM EGTA, and 10 mM HEPES at pH 7.40. Stock solution with EGTA contained 150 mM NaCl, 5 mM EGTA, and 10 mM HEPES at pH 7.40. Free Ca^2+ concentrations were adjusted by mixing the stock solutions at the required ratios calculated using the WEBMAXC program (http://web.stanford.edu/~cpatton/webmaxcS.htm). Patch pipettes were filled with the stock solution with Ca^2+-EGTA, which has a free Ca^2+ concentration of 1 mM. 1PBC (ChemBridge) stock was reconstituted in anhydrous DMSO (Sigma-Aldrich) at 100 mM and stored at −20 °C. Working solutions with 1PBC were prepared by serial dilution. Unless otherwise stated, experiments were performed at a saturating Ca^2+ concentration as shown in Supplementary Table 1 and the primary data were corrected for current rundown as described previously[21],[25].
Concentration-response relations, obtained from the ratio of the I-V plots before and after the application of the blocker, were fitted to the Hill equation,1 I/Imax=1/1+IC50/[blocker]^h where I/Imax is the normalized current responses, IC50 defines the concentration at which inhibition is at its half-maximum, and h is the Hill coefficient.

[3] = 0 mV, 2 µM Ca2+, read-out: I/Imax
[4] = 0 mV, zero Ca2+, read-out: I/Imax

solubility [1]: ~100 µM (≈ 27.7 µg/mL)
I/Imax_+80mV ([2]; 0Ca, 3 μM 1PBC): 0.8995
I/Imax_-80mV ([2]; 0Ca, 3 μM 1PBC): 0.9942
I/Imax_+80mV ([2]; 0Ca, 10 μM 1PBC): 0.7384
I/Imax_-80mV ([2]; 0Ca, 10 μM 1PBC): 0.9446
I/Imax_+80mV ([2]; 0Ca, 30 μM 1PBC): 0.483
I/Imax_-80mV ([2]; 0Ca, 30 μM 1PBC): 0.815
I/Imax_+80mV ([2]; 0Ca, 100 μM 1PBC): 0.2577
I/Imax_-80mV ([2]; 0Ca, 100 μM 1PBC): 0.578
remaining activity at 1 µM ([2]; 1 µM 1PBC, 0 mV, 2 µM Ca2+, read-out: I/Imax): 80%
remaining activity at 3 µM [2, 3]: 57.9%
remaining activity at 3 µM [2, 4]: 92.9%
remaining activity at 10 µM [2, 3]: 31.4%
remaining activity at 10 µM [2, 4]: 84.7%
remaining activity at 30 µM [2, 3]: 13.7%
remaining activity at 30 µM [2, 4]: 63.9%
remaining activity at 100 µM ([2]; 100 µM 1PBC, 0 mV, zero Ca2+, read-out: I/Imax): 39.9%
I/Imax_+80mV ([2]; Ca, 1 μM 1PBC): 0.7635
I/Imax_-80mV ([2]; Ca, 1 μM 1PBC): 0.9086
I/Imax_+80mV ([2]; Ca, 3 μM 1PBC): 0.5067
I/Imax_-80mV ([2]; Ca, 3 μM 1PBC): 0.7508
I/Imax_+80mV ([2]; Ca, 10 μM 1PBC): 0.2578
I/Imax_-80mV ([2]; Ca, 10 μM 1PBC): 0.4875
I/Imax_+80mV ([2]; Ca, 30 μM 1PBC): 0.09866
I/Imax_-80mV ([2]; Ca, 30 μM 1PBC): 0.2347
Decrease in potency of block, Ca2+-free form vs Ca2+-bound state ([2]; zero vs 2 µM Ca2+): about ten-fold
SMILES: N#Cc1c(C(F)(F)F)cc(O)n2c1nc1ccccc12 [1PBC]
